Test results as given in US6949571B2, “1,2-dihydropyridine compounds, process for preparation of the same and use thereof” (Eisai Co., Ltd., priority 2000, dated 2005).

test system: AMPA receptor; conditions: Table 1; primary culture of rat embryo cerebral cortex nerve cells, 2 μM AMPA, 1 μM MK-801
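Also: primary rat embryonic cortical neurons grown on an astrocyte layer in 96-well plates, used after at least 8 to 10 days in culture, Fura2-AM fluorescence ratio at 340/380 nm excitation.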

SMILES | IC50 [nM]
CNc1cccc(-n2cc(-c3ccccn3)cc(-c3ccccc3C#N)c2=O)c1 [Example 11, 3-(2-Cyanophenyl)-5-(2-pyridyl)-1-(3-methylaminophenyl)-1,2-dihydropyridin-2-one] | 60
N#Cc1ccccc1-c1cc(-c2ccncc2)cn(-c2ccccc2)c1=O [Example 35, 3-(2-Cyanophenyl)-5-(4-pyridyl)-1-phenyl-1,2-dihydropyridin-2-one] | 3100
COc1ccncc1-n1cc(-c2ccccn2)cc(-c2cccnc2F)c1=O [Example 86, 3-(2-Fluoro-3-pyridyl)-5-(2-pyridyl)-1-(4-methoxy-3-pyridyl)-1,2-dihydropyridin-2-one] | 1900
O=c1c(-c2ccccc2)cc(-c2ccccn2)cn1-c1cccnc1 [Example 127, 3-Phenyl-5-(2-pyridyl)-1-(3-pyridyl)-1,2-dihydropyridin-2-one] | 400
N#Cc1ccccc1-c1cc(-c2ccsc2C=O)cn(-c2ccccc2)c1=O [Example 28, 3-(2-Cyanophenyl)-5-(2-formylthiophen-3-yl)-1-phenyl-1,2-dihydropyridin-2-one] | 200
N#Cc1ccccc1-c1cc(-c2ccccc2N)cn(-c2ccccc2)c1=O [Example 2, 5-(2-Aminophenyl)-3-(2-cyanophenyl)-1-phenyl-1,2-dihydropyridin-2-one] | 1800
N#Cc1ccccc1-c1cc(-c2ccccn2)cn(-c2cccc([N+](=O)[O-])c2)c1=O [Example 8, 3-(2-Cyanophenyl)-5-(2-pyridyl)-1-(3-nitrophenyl)-1,2-dihydropyridin-2-one] | 100
COC(=O)c1ccccc1-c1cc(-c2ccccn2)cn(-c2ccccc2)c1=O [Example 58, 3-(2-Methoxycarbonylphenyl)-5-(2-pyridyl)-1-phenyl-1,2-dihydropyridin-2-one] | 100
N#Cc1ccccc1-c1cc(-c2ccccn2)cn(-c2cccc(C=O)c2)c1=O [Example 20, 3-(2-Cyanophenyl)-5-(2-pyridyl)-1-(3-formylphenyl)-1,2-dihydropyridin-2-one] | 40
N#Cc1ccccc1-c1cc(-c2ccccn2)cn(-c2ccsc2)c1=O [Example 105, 3-(2-Cyanophenyl)-5-(2-pyridyl)-1-(thiophen-3-yl)-1,2-dihydropyridin-2-one] | 30
N#Cc1ccccc1-c1cc(-c2ccccn2)cn(-c2cccc(F)c2)c1=O [Example 92, 3-(2-Cyanophenyl)-5-(2-pyridyl)-1-(3-fluorophenyl)-1,2-dihydropyridin-2-one] | 50
O=Cc1sccc1-c1cc(-c2ccccn2)cn(-c2cccnc2)c1=O [Example 130, 3-(2-Formylthiophen-3-yl)-5-(2-pyridyl)-1-(3-pyridyl)-1,2-dihydropyridin-2-one] | 900
COc1cncc(-n2cc(-c3ccccn3)cc(-c3ccccc3C#N)c2=O)c1 [Example 118, 3-(2-Cyanophenyl)-5-(2-pyridyl)-1-(3-methoxypyridin-5-yl)-1,2-dihydropyridin-2-one] | 100
N#Cc1ccccc1-c1cc(-c2ccccn2)cn(-c2cccc(Cl)c2)c1=O [Example 102, 3-(2-Cyanophenyl)-5-(2-pyridyl)-1-(3-chlorophenyl)-1,2-dihydropyridin-2-one] | 20
N#Cc1ccccc1-c1cc(-c2ccccc2F)cn(-c2ccccc2)c1=O [Example 45, 3-(2-Cyanophenyl)-5-(2-fluorophenyl)-1-phenyl-1,2-dihydropyridin-2-one] | 200
N#Cc1ccccc1-c1cc(-c2ccccn2)cn(-c2cccc(C(F)(F)F)c2)c1=O [Example 104, 3-(2-Cyanophenyl)-5-(2-pyridyl)-1-(3-trifluoromethylphenyl)-1,2-dihydropyridin-2-one] | 200
COc1ccc(-n2cc(-c3ccccn3)cc(-c3ccccc3C#N)c2=O)cc1 [Example 95, 3-(2-Cyanophenyl)-5-(2-pyridyl)-1-(4-methoxyphenyl)-1,2-dihydropyridin-2-one] | 300
O=c1c(-c2cccnc2)cc(-c2ccccn2)cn1-c1ccccc1 [Example 67, 3-(3-Pyridyl)-5-(2-pyridyl)-1-phenyl-1,2-dihydropyridin-2-one] | 6500

same assay, conditions: Table 2; suppression of AMPA-induced calcium influx into nerve cells

SMILES | IC50 [nM]
N#Cc1cccc(-c2cc(-c3ccccc3C#N)c(=O)n(-c3ccccc3)c2)n1 [Example 236, 3-(2-Cyanophenyl)-5-(2-cyanopyridin-6-yl)-1-phenyl-1,2-dihydropyridin-2-one] | 600
N#Cc1ccccc1-c1cc(-c2ccccn2)cn(-c2cccc(OCCCCN3CCCCC3)c2)c1=O [Example 249, 3-(2-Cyanophenyl)-1-[3-(4-piperidinobutyl-1-oxy)phenyl]-5-(2-pyridyl)-1,2-dihydropyridin-2-one] | 300
N#Cc1ccccc1-c1cc(-c2ccccn2)cn(-c2cccc(OCc3ccccc3)c2)c1=O [Example 276, 1-[3-(Benzyloxy)phenyl]-3-(2-cyanophenyl)-5-(2-pyridyl)-1,2-dihydropyridin-2-one] | 1900
Cc1ccnc(-c2cc(-c3ccccc3C#N)c(=O)n(-c3ccccc3)c2)c1 [Example 197, 3-(2-Cyanophenyl)-5-(4-methylpyridin-2-yl)-1-phenyl-1,2-dihydropyridin-2-one] | 2900
N#Cc1ncccc1-c1cc(-c2ncccn2)cn(-c2cccnc2)c1=O [Example 265, 3-(2-Cyanopyridin-3-yl)-1-(3-pyridyl)-5-(2-pyrimidinyl)-1,2-dihydropyridin-2-one] | 700
O=c1c(C=Cc2ccccn2)cc(-c2ccccn2)cn1-c1ccccc1 [Example 187, 3-(2-Pyridylethenyl)-5-(2-pyridyl)-1-phenyl-1,2-dihydropyridin-2-one] | 6100
CC(C)N(CCOc1cccc(-n2cc(-c3ccccn3)cc(-c3ccccc3C#N)c2=O)c1)C(C)C [Example 242, 3-(2-Cyanophenyl)-1-[3-(diisopropylaminoethoxy)phenyl]-5-(2-pyridyl)-1,2-dihydropyridin-2-one] | 500
O=c1c(C2=COCCO2)cc(-c2ccccn2)cn1-c1ccccc1 [Example 269, 3-(5,6-Dihydro-1,4-dioxin-2-yl)-1-phenyl-5-(2-pyridyl)-1,2-dihydropyridin-2-one] | 1900
COc1cccc(-c2cc(-c3ccccn3)cn(-c3ccccc3)c2=O)n1 [Example 260, 3-(2-Methoxypyridin-6-yl)-1-phenyl-5-(2-pyridyl)-1,2-dihydropyridin-2-one] | 2700
N#Cc1ccccc1-c1cc(C2=COCCO2)cn(-c2ccccc2)c1=O [Example 209, 3-(2-Cyanophenyl)-5-(5.6-dihydro-1.4-dioxin-2-yl)-1-phenyl-1,2-dihydropyridin-2-one] | 7000
O=c1c(-c2ccccc2Cl)cc(-c2nc3ccccc3o2)cn1-c1ccccc1 [Example 184, 3-(2-Chlorophenyl)-5-(2-benzoxazolyl)-1-phenyl-1,2-dihydropyridin-2-one] | 2300
CC(=O)Nc1ccccc1-c1cc(-c2ccccn2)cn(-c2ccccc2)c1=O [Example 230, 3-[2-(Acetylamino)phenyl]-1-phenyl-5-(2-pyridyl)-1,2-dihydropyridin-2-one] | 4000
Nc1cccc(-c2cc(-c3ccccn3)cn(-c3ccccc3)c2=O)c1 [Example 220, 3-(3-Aminophenyl)-1-phenyl-5-(2-pyridyl)-1,2-dihydropyridin-2-one] | 600
O=c1c(-c2ccc([N+](=O)[O-])cc2)cc(-c2ccccn2)cn1-c1ccccc1 [Example 275, 3-(4-Nitrophenyl)-1-phenyl-5-(2-pyridyl)-1,2-dihydropyridin-2-one] | 6100
N#Cc1ccccc1-c1cc(-c2ncccc2O)cn(-c2ccccc2)c1=O [Example 198, 3-(2-Cyanophenyl)-5-(3-hydroxypyridin-2-yl)-1-phenyl-1,2-dihydropyridin-2-one] | 300
O=c1c(-c2cnccn2)cc(-c2ccccn2)cn1-c1ccccc1 [Example 253, 1-Phenyl-3-(2-pyrazyl)-5-(2-pyridyl)-1,2-dihydropyridin-2-one] | 4700
CCN(CC)CCOc1cccc(-n2cc(-c3ccccn3)cc(-c3ccccc3C#N)c2=O)c1 [Example 246, 3-(2-Cyanophenyl)-1-[3-(diethylaminoethoxy)phenyl]-5-(2-pyridyl)-1,2-dihydropyridin-2-one] | 1100
O=c1c(-c2ccc(F)nc2)cc(-c2ccccn2)cn1-c1ccccc1 [Example 288, 3-(2-Fluoropyridin-5-yl)-5-(2-pyridyl)-1-phenyl-1,2-dihydropyridin-2-one] | 1200

same assay, conditions: Table 3; primary culture of rat embryo cerebral cortex nerve cells, 2 μM AMPA, 1 μM MK-801

SMILES | IC50 [nM]
O=c1c(-c2ccsc2-c2cnco2)cc(-c2ccccn2)cn1-c1ccccc1 [Example 393, 3-[2-(5-Oxazolyl)thiophen-3-yl]-1-phenyl-5-(2-pyridyl)-1,2-dihydropyridin-2-one] | 300
O=c1c(-c2nc3cc(Cl)c(Cl)cc3[nH]2)cc(-c2ccccn2)cn1-c1ccccc1 [Example 354, 3-(5.6-Dichloro-1H-benzimidazol-2-yl)-5-(2-pyridyl)-1-phenyl-1,2-dihydropyridin-2-one] | 1500
N#Cc1ccccc1-c1cc(NCc2ccccc2)cn(-c2ccccc2)c1=O [Example 313, 5-Benzylamino-3-(2-cyanophenyl)-1-phenyl-1,2-dihydropyridin-2-one] | 5900
CS(=O)(=O)N1CCC(Oc2cccc(-n3cc(-c4ccccn4)cc(-c4ccccc4C#N)c3=O)c2)CC1 [Example 338, 3-(2-Cyanophenyl)-1-{3-[1-(methanesulfonyl)piperidin-4-yl-oxy]phenyl}-5-(2-pyridyl)-1,2-dihydropyridin-2-one] | 400
O=c1c(-n2ccc3ccccc32)cc(-c2ccccn2)cn1-c1ccccc1 [Example 326, 3-(Indol-1-yl)-5-(2-pyridyl)-1-phenyl-1,2-dihydropyridin-2-one] | 900
N#Cc1ccccc1-c1cc(C(=O)c2ccccn2)cn(-c2ccccc2)c1=O [Example 394, 3-(2-Cyanophenyl)-5-(2-pyridinecarbonyl)-1-phenyl-1,2-dihydropyridin-2-one] | 1400
